In US7598400B2, “AMPO spin traps” (The Ohio State University Research Foundation, priority 2004, dated 2009):
Read-outs that look alike come from different tables or passages of the source.

Experiments:
[1] = Rate of superoxide radical trapping by competitive trapping versus DEPMPO (EPR); conditions: based on kDEPMPO=58 M^−1 s^−1
Procedure: The nitrone 5-carbamoyl-5-methyl-1-pyrroline N-oxide (AMPO) was successfully synthesized and characterized. […] Resulting spin adducts for each of these radicals gave unique spectral profiles. […] Theoretical analyses using density functional theory calculations at the B3LYP/6-31=G**/B3LYP6-31G* level were performed on AMPO and its corresponding suproxide product. Calculations predicted the presence of intramolecular H-bonding in both AMPO and its superoxide adduct, and these interactions were further confirmed by an X-ray structure (in the case of AMPO) of a novel and the amido nitrone compound 2-amino-5-carbamoyl-5-methyl-1-pyrroline N-oxide (NH2-AMPO).
(§1) Trapping of O2^•−. Typical O2^•− trapping experiments utilized the riboflavin-light system as described in the Kinetics section. An alternative O2^•− generating system used a solution of 0.4 mM xanthine and 0.5 unit/mL xanthine oxidase, or 10 nM PMA and 8×10^5 neutrophil cells in 25 mM AMPO. Spectra were acquired over a period of 15 min.

[2] = Decay kinetics of nitrone-superoxide adducts (EPR, riboflavin-light system); assay type: physicochemical; conditions: pH 7.2 and 23° C.; this work
Procedure: Decay Kinetics In a typical decay kinetic study, 50 μL solution containing 25 mM of the nitrone and 100 μM riboflavin was irradiated for 3 min in the cavity. […] All data were the average of 3 or more measurements.

[3] = Partition coefficient n-octanol/water (buffer); assay type: physicochemical; conditions: for Kp (n-octanol/water): pH 7.2, shaken for 2 hrs at 37° C.
[4] = Spin trapping of radicals detected by EPR spectroscopy; conditions: hydroxyl, superoxide, C-centered, sulfite, and tert-butoxyl radicals
Procedure: Miscellaneous Spin Trapping Studies Fenton reaction system. A 50 μL 0.1 M phosphate buffer solution containing 30 mM AMPO, 1% H2O2 and 65 mM FeSO4 was transferred to a 50 μL capillary tube and EPR spectrum of the hydroxyl adduct was recorded over 5 min time period.
Trapping of SO3^•−, CO2^•− and CH3.CHOH radicals. 50 μL 0.1 M phosphate buffer solution containing 30 mM AMPO, 1% H2O2 and 100 mM of the respective radical source NaHCO2, Na2SO3, or ethanol with 65 mM freshly prepared FeSO4. The mixture was then transferred to 50 μL capillary tube and EPR spectrum of the adduct was recorded over a 5 min time period.
Trapping of GS. and t-BuO. radicals. 50 μL 0.1 M phosphate buffer solution containing 30 mM AMPO and 100 mM GSSG or (CH3)3CO—OC(CH3)3. The mixture was then transferred to 50 μL capillary tube and the radicals were generated by UV photolysis. EPR spectrum of the adduct was recorded over a 5 min time period.
as §1

[5] = value of the competitor DEPMPO used as basis of the calculation; cited from earlier work
[6] = pH 7.2 and 23° C.; literature reference; cited from earlier work

SMILES | Rate of superoxide radical trapping (k) [1] [M⁻¹ s⁻¹] | kl /10^−4s^−1 (first order decay of nitrone-superoxide adduct) [2] | partition coefficient in an n-octanol/buffer system (comparison in words) ([3]; n-octanol/buffer system) | Kp (n-octanol/water) [3] | Spin trapping of radicals by EPR [4] | Rate of superoxide radical trapping (k), reference value [5] [M⁻¹ s⁻¹] | kl /10^−4s^−1 (first order decay of nitrone-superoxide adduct) [6] | t1/2/min, first order approximation half-life of nitrone-superoxide adduct [6] [min]
CC1(C(N)=O)CCC=[N+]1[O-] (stereo not shown) [AMPO, 5-carbamoyl-5-methyl-1-pyrroline N-oxide] | 38 | 14.0 ± 1.2 10^−4s^−1 | comparable value to those of DMPO and DEPMPO | 0.03 | has been demonstrated |  |  | 
CCOP(=O)(OCC)C1(C)CCC=[N+]1[O-] (stereo not shown) [DEPMPO, 5-diethoxyphosphoryl-5-methyl-1-pyrroline N-oxide] |  | 7.5 ± 0.7 10^−4s^−1 |  | 0.16 |  | 58 | 8.13 10^−4s^−1 | 14.2
CC1(C)CCC=[N+]1[O-] [DMPO] |  |  |  | 0.06 |  |  | 129.0 10^−4s^−1 | 0.9
CCOC(=O)C1(C)CCC=[N+]1[O-] (stereo not shown) [EMPO, 5-ethoxycarbonyl-5-methyl-1-pyrroline N-oxide] | 44 | 11.6 ± 0.5 10^−4s^−1 |  | 0.33 |  |  |  | 
